Results reported in ChEMBL document CHEMBL1122565, “Quantitative structure-activity relationships of 6-anilinouracils as inhibitors of Bacillus subtilis DNA polymerase III” (J Med Chem, 1984).

Key:
[1] = target: DNA polymerase III PolC-type (Bacillus subtilis (strain 168), UniProt P13267); experiment: Inhibition constant against Bacillus subtilis DNA polymerase III (wild type).; conditions: read-out: Log 1/Ki (converted)
[2] = target: DNA polymerase III (Bacillus subtilis); experiment: Inhibition constant against Bacillus subtilis azp-12 DNA polymerase III (mutant enzyme).

DNA polymerase III PolC-type, sequence (P13267 whole entry): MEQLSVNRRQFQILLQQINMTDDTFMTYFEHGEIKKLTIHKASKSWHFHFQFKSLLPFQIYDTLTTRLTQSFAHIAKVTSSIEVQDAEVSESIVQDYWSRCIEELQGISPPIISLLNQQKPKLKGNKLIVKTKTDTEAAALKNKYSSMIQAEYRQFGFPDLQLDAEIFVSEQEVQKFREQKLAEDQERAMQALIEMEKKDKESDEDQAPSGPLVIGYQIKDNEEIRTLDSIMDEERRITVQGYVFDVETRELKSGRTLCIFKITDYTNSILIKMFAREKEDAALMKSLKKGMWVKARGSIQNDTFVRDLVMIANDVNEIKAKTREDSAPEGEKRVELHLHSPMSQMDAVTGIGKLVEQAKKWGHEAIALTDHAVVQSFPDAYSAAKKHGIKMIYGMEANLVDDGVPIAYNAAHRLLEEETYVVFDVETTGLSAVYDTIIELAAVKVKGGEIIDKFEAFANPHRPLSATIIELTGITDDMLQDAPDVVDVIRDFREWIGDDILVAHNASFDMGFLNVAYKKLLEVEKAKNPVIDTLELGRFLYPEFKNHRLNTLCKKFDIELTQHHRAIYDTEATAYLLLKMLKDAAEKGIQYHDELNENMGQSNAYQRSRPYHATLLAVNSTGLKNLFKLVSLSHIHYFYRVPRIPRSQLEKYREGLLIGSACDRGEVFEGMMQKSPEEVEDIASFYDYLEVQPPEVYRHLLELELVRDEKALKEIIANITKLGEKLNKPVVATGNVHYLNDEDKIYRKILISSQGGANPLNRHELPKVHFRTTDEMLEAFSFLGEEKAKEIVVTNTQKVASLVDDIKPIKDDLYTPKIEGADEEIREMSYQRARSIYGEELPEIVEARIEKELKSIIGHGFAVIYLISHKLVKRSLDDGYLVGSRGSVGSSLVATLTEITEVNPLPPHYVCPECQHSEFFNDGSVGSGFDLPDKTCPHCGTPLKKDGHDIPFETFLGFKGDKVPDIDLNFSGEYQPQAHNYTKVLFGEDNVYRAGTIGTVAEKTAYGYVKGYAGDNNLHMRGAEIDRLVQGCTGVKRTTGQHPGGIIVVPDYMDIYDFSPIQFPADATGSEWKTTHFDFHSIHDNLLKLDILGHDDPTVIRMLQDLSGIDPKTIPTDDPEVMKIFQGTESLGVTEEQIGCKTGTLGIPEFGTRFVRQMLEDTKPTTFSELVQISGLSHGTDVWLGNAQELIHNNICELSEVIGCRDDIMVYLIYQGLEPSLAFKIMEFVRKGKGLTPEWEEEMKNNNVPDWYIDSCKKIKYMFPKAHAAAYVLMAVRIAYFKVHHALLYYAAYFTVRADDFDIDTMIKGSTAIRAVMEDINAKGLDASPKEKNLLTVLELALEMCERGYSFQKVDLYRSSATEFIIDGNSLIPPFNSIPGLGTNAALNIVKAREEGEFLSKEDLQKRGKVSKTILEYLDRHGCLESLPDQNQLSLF

SMILES | Ki [1] [µM] | Log 1/Ki [2]
CCCc1cccc(Nc2cc(O)nc(O)n2)c1 | 17 | 
CCCCc1cccc(Nc2cc(O)nc(O)n2)c1 | 695 | 
CCCc1ccc(Nc2cc(O)nc(O)n2)cc1C | 97.9 | 4.86
OCc1cccc(Nc2cc(O)nc(O)n2)c1 |  | 2.29
Nc1ccc(Nc2cc(O)nc(O)n2)cc1 |  | 2.409
CCc1cc(Nc2cc(=O)[nH]c(=O)[nH]2)ccc1C | 0.19 | 
Cc1cccc(Nc2cc(O)nc(O)n2)c1 |  | 3.75
CC(=O)Nc1cc(Nc2cc(O)nc(O)n2)ccc1C |  | 2.726
Oc1cc(Nc2cccc(Cl)c2)nc(O)n1 |  | 4.38
CCCc1ccc(Nc2cc(O)nc(O)n2)cc1 |  | 4.278
Cc1ccc(Nc2cc(O)nc(O)n2)cc1C |  | 5.456
Oc1cc(Nc2cccc(Br)c2)nc(O)n1 |  | 4.66
CC(=O)Nc1ccc(Nc2cc(O)nc(O)n2)cc1C |  | 2.81
CCCCc1ccc(Nc2cc(O)nc(O)n2)cc1C | 692 | 3.879
COc1ccc(Nc2cc(O)nc(O)n2)cc1 |  | 3.921
Cc1ccc(Nc2cc(O)nc(O)n2)cc1I |  | 6.553
Cc1cc(Nc2cc(O)nc(O)n2)ccc1N |  | 3.801
CCc1ccc(Nc2cc(=O)[nH]c(=O)[nH]2)cc1C | 19 | 
